Experimental data as given in patent publication US11034699B2, “Ethynyl derivatives” (Hoffmann-La Roche Inc., priority 2015, dated 2021).

Columns and labels:
[1] = molecular target: human mGlu4 receptor (Homo sapiens (Human), UniProt Q14833); assay: Ca2+ mobilization in vitro assay on recombinant human mGlu4 expressed in HEK293 cells (PAM); type: cell-based; conditions: for Emax: HEK293, maximal response in % of maximal stimulatory effect of saturating L-AP4, read-out: Eff. (%); for EC50: HEK293 cells, human mGlu4, L-AP4 at EC20
Chain of human mGlu4 receptor (Q14833 33-912): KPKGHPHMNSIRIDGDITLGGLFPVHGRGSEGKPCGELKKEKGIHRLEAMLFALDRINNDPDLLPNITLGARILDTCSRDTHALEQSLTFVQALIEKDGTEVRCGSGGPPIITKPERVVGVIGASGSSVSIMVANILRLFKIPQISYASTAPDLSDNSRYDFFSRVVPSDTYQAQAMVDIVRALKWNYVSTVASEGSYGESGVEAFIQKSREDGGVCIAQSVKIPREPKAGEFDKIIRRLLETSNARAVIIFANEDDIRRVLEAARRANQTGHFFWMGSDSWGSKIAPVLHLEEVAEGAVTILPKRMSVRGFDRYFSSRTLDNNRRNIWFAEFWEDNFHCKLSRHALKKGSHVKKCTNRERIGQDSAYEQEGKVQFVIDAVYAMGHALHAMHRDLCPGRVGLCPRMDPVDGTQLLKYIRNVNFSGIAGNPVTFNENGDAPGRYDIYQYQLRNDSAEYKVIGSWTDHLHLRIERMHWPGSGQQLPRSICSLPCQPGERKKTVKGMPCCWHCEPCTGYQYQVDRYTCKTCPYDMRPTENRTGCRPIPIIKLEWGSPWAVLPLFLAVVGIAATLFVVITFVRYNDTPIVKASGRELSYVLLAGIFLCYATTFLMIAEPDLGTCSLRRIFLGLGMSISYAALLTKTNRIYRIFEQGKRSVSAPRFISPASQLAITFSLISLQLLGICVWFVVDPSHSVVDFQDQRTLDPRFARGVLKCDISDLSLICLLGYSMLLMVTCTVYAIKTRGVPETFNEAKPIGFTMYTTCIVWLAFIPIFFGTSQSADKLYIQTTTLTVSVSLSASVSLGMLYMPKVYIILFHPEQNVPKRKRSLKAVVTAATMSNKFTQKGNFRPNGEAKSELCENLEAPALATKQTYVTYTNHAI
Experimental: Determination of EC50 Values Using a Ca2+ Mobilization In Vitro Assay on Recombinant Human mGlu4 Expressed in HEK293 Cells:
A monoclonal HEK-293 cell line stably transfected with a cDNA encoding for the human mGlu4 receptor was generated; for the work with mGlu4 Positive Allosteric Modulators (PAMs), a cell line with low receptor expression levels and low constitutive receptor activity was selected to allow the differentiation of agonistic versus PAM activity. Cells were cultured according to standard protocols (Freshney, 2000) in Dulbecco's Modified Eagle Medium with high glucose supplemented with 1 mM glutamine, 10% (vol/vol) heat-inactivated bovine calf serum, Penicillin/Streptomycin, 50 μg/ml hygromycin and 15 μg/ml blasticidin (all cell culture reagents and antibiotics from Invitrogen, Basel, Switzerland).
About 24 hrs before an experiment, 5×10^4 cells/well were seeded in poly-D-lysine coated, black/clear-bottomed 96-well plates. The cells were loaded with 2.5 μM Fluo-4AM in loading buffer (1×HBSS, 20 mM HEPES) for 1 hr at 37° C. and washed five times with loading buffer. The cells were transferred into a Functional Drug Screening System 7000 (Hamamatsu, Paris, France), and 11 half logarithmic serial dilutions of test compound at 37° C. were added and the cells were incubated for 10-30 min. with on-line recording of fluorescence. Following this pre-incubation step, the agonist (2S)-2-amino-4-phosphonobutanoic acid (L-AP4) was added to the cells at a concentration corresponding to EC20 with on-line recording of fluorescence; in order to account for day-to-day variations in the responsiveness of cells, the EC20 of L-AP4 was determined immediately ahead of each experiment by recording of a full dose-response curve of L-AP4.
Responses were measured as peak increase in fluorescence minus basal (i.e. fluorescence without addition of L-AP4), normalized to the maximal stimulatory effect obtained with saturating concentrations of L-AP4. Graphs were plotted with the % maximal stimulatory using XLfit, a curve fitting program that iteratively plots the data using Levenburg Marquardt algorithm. The single site competition analysis equation used was y=A+((B−A)/(1+((x/C)D))), where y is the % maximal stimulatory effect, A is the minimum y, B is the maximum y, C is the EC50, x is the log 10 of the concentration of the competing compound and D is the slope of the curve (the Hill Coefficient). From these curves the EC50 (drug concentration at which 50% of the maximal receptor activation was achieved), the Hill coefficient as well as the maximal response in % of the maximal stimulatory effect obtained with saturating concentrations of L-AP4 were calculated (see FIG. 1).
A depression of the signal observed after addition of the EC20 concentration of L-AP4 was indicative of an inhibitory activity of the test compound.

[2] = test system: mice; conditions: cited from earlier work
[3] = test system: mice; conditions: cited from earlier work; remark: listed apart in the source
[4] = test system: rats; conditions: cited from earlier work
[5] = test system: mice; conditions: mice treated with MPTP; cited from earlier work
[6] = test system: rodent; conditions: 6-OHDA rodent model of PD; cited from earlier work

| Compound | Emax [1] [%] | EC50 [1] [nM] | also measured |
| --- | --- | --- | --- |
| CN1C(=O)N(c2c(F)cc(C#Cc3ccccc3)cc2F)C(=O)C[C@]12CCCCc1[nH]ncc12 [Example 15, (4S)-3′-[2,6-Difluoro-4-(2-phenylethynyl)phenyl]-1′-methyl-spiro[5,6,7,8-tetrahydro-1H-cyclohepta[c]pyrazole-4,6′-hexahydropyrimidine]-2′,4′-dione] | 133 | 54 |  |
| CN1C(=O)N(c2c(F)cc(C#Cc3ccccc3)cc2F)C(=O)C[C@]12CCCc1cnccc12 [Example 6, (5S)-3′-[2,6-Difluoro-4-(2-phenylethynyl)phenyl]-1′-methyl-spiro[7,8-dihydro-6H-isoquinoline-5,6′-hexahydropyrimidine]-2′,4′-dione] | 115 | 65 |  |
| CN1C(=O)N(c2c(F)cc(C#Cc3ccccc3)cc2F)C(=O)C[C@]12CCCc1[nH]ncc12 [Example 12, (4S)-3′-[2,6-Difluoro-4-(2-phenylethynyl)phenyl]-1′-methyl-spiro[1,5,6,7-tetrahydroindazole-4,6′-hexahydropyrimidine]-2′,4′-dione] | 152 | 51 |  |
| CN1C(=O)N(c2c(F)cc(C#Cc3cccnc3)cc2F)C(=O)C[C@]12COCc1ccccc12 [Example 10, (6S)-3-[2,6-Difluoro-4-[2-(3-pyridyl)ethynyl]phenyl]-1-methyl-spiro[hexahydropyrimidine-6,4′-isochromane]-2,4-dione] | 118 | 43 |  |
| CN1C(=O)N(c2c(F)cc(C#Cc3ccccc3)cc2F)C(=O)C[C@]12CCc1ncccc12 [Example 4, (5S)-3′-[2,6-Difluoro-4-(2-phenylethynyl)phenyl]-1′-methyl-spiro[6,7-dihydrocyclopenta[b]pyridine-5,6′-hexahydropyrimidine]-2′,4′-dione] | 115 | 94 |  |
| CN1C(=O)N(c2c(F)cc(C#Cc3ccccc3)cc2F)C(=O)C[C@]12CCCCc1nn(C)cc12 [Example 17, (4S)-3′-[2,6-Difluoro-4-(2-phenylethynyl)phenyl]-1′,2-dimethyl-spiro[5,6,7,8-tetrahydrocyclohepta[c]pyrazole-4,6′-hexahydropyrimidine]-2′,4′-dione] | 131 | 39 |  |
| Cc1ccnc(Nc2nc(-c3cn[nH]c3)c(C)s2)n1 [ADX88178] |  |  | activity in marble burying test [2]: active; activity in EPM [3]: active; profile in the rat EPM test ([4]; rat, after oral dosing): anxiolytic-like profile; activity in EPM ([4]; rats): active |
| CN1C(=O)N(c2c(F)cc(C#Cc3ccccc3)cc2F)C(=O)C[C@]12CCCc1ccncc12 [Example 1, (8S)-3′-[2,6-Difluoro-4-(2-phenylethynyl)phenyl]-1′-methyl-spiro[6,7-dihydro-5H-isoquinoline-8,6′-hexahydropyrimidine]-2′,4′-dione] | 101 | 58 |  |
| O=C(Nc1ccccc1)C12CC1/C(=N\O)c1ccccc1O2 (single isomer, unassigned; (-)) [(−)-PHCCC] |  |  | nigrostriatal degeneration [5]: reduced nigrostriatal degeneration |
| CN1C(=O)N(c2c(F)cc(C#Cc3ccccc3)cc2F)C(=O)C[C@]12CCCc1ncccc12 [Example 5, (5S)-3′-[2,6-Difluoro-4-(2-phenylethynyl)phenyl]-1′-methyl-spiro[7,8-dihydro-6H-quinoline-5,6′-hexahydropyrimidine]-2′,4′-dione] | 121 | 76 |  |
| CN1C(=O)N(c2c(F)cc(C#Cc3ccccc3)cc2F)C(=O)C[C@]12CCOc1ncccc12 [Example 9, (4S)-3′-[2,6-Difluoro-4-(2-phenylethynyl)phenyl]-1′-methyl-spiro[2,3-dihydropyrano[2,3-b]pyridine-4,6′-hexahydropyrimidine]-2′,4′-dione] | 124 | 51 |  |
| CN1C(=O)N(c2c(F)cc(C#Cc3cccnc3)cc2F)C(=O)C[C@]12CCc1ccccc12 [Example 3, (6S)-3-[2,6-Difluoro-4-[2-(3-pyridyl)ethynyl]phenyl]-1-methyl-spiro[hexahydropyrimidine-6,1′-indane]-2,4-dione] | 94 | 61 |  |
| N[C@@H](CCP(=O)(O)O)C(=O)O [L-AP4, (2S)-2-amino-4-phosphonobutanoic acid] |  |  | neuroprotective effects [6]: neuroprotective effects |
| CN1C(=O)N(c2c(F)cc(C#Cc3cccnc3)cc2F)C(=O)C[C@]12CCCc1ccccc12 [Example 2, (6S)-3-[2,6-Difluoro-4-[2-(3-pyridyl)ethynyl]phenyl]-1-methyl-spiro[hexahydropyrimidine-6,1′-tetralin]-2,4-dione] | 101 | 52 |  |
| CN1C(=O)N(c2c(F)cc(C#Cc3ccccc3)cc2F)C(=O)C[C@]12CCCc1ncncc12 [Example 7, (5S)-3′-[2,6-Difluoro-4-(2-phenylethynyl)phenyl]-1′-methyl-spiro[7,8-dihydro-6H-quinazoline-5,6′-hexahydropyrimidine]-2′,4′-dione] | 115 | 65 |  |
| CN1C(=O)N(c2c(F)cc(C#Cc3cccnc3)cc2F)C(=O)C[C@]12CCOc1ccccc12 [Example 8, (4S)-3′-[2,6-Difluoro-4-[2-(3-pyridyl)ethynyl]phenyl]-1′-methyl-spiro[chromane-4,6′-hexahydropyrimidine]-2′,4′-dione] | 145 | 88 |  |
| CN1C(=O)N(c2c(F)cc(C#Cc3ccccc3)cc2F)C(=O)C[C@]12CCCc1c2cnn1C [Example 14, (4S)-3′-[2,6-Difluoro-4-(2-phenylethynyl)phenyl]-1,1′-dimethyl-spiro[6,7-dihydro-5H-indazole-4,6′-hexahydropyrimidine]-2′,4′-dione] | 151 | 75 |  |
| CN1C(=O)N(c2c(F)cc(C#Cc3ccccc3)cc2F)C(=O)C[C@]12CCCc1nn(C)cc12 [Example 13, (4S)-3′-[2,6-Difluoro-4-(2-phenylethynyl)phenyl]-1′,2-dimethyl-spiro[6,7-dihydro-5H-indazole-4,6′-hexahydropyrimidine]-2′,4′-dione] | 165 | 39 |  |
| CCN1C(=O)N(c2c(F)cc(C#Cc3ccccc3)cc2F)C(=O)C[C@]12CCCc1ccncc12 [Example 11, (8S)-3′-[2,6-Difluoro-4-(2-phenylethynyl)phenyl]-1′-ethyl-spiro[6,7-dihydro-5H-isoquinoline-8,6′-hexahydropyrimidine]-2′,4′-dione] | 130 | 114 |  |
| CN1C(=O)N(c2c(F)cc(C#Cc3ccccc3)cc2F)C(=O)C[C@]12CCCCc1c2cnn1C [Example 16, (4S)-3′-[2,6-Difluoro-4-(2-phenylethynyl)phenyl]-1,1′-dimethyl-spiro[5,6,7,8-tetrahydrocyclohepta[c]pyrazole-4,6′-hexahydropyrimidine]-2′,4′-dione] | 137 | 34 |  |
